Measured values as given in patent publication US20220195059A1, “Rank Pathway Inhibitors in Combination with CDK Inhibitors” (INSTITUTO DE MEDICINA MOLECULAR JOÃO LOBO ANTUNES, priority 2019, published 2022).

Tested on: MDA-MB-231 xenografts
Assay: TNBC ectopic xenograft model
Type: in vivo, NSG mice
Conditions: Palbociclib 30 mg/Kg/day p.o., 21 days; xenografts not regressed
Description: Based on these findings TNBC BC sensitivity to CDK4/6 inhibitors (palbociclib) in combination with RANK pathway blockage was tested in a TNBC ectopicxenograft model (FIG. 27). Nod scid gama (NSG) mice were inoculated subcutaneously and bilaterally in the flanks (n=5/group). Tumors were measured with caliper. When tumors reach approximately 100 mm^3 mice were randomized based on tumor size and treated according to the experimental protocol. Palbociclib was used at 30 mg/Kg/day for 21 consecutive days, as the human equivalent dose (HED) of 125 mg/day approved for palbociclib is equivalent to […] in mice (Nair and Jacob, J Basic Clin Pharm. 2016 March; 7(2):27-31). OPG-Fc was used at 10 mg/Kg 3×/week (HED 291.6 mg/15 days).
Nod scid gama (NSG) mice were inoculated subcutaneously and bilaterally in the flanks with MDA-MB-231 cells (n=4-5/group). Six weeks post inoculation mice were randomized based on tumor size and treated with OPG-Fc 10 mg/Kg i.p. 3× per week; Palbociclib 30 mg/Kg/day p.o. or the combination. […] The data are presented as mean±SEM. p-value was calculated using ANOVA, *p<0.05, **p<0.01, ***p<0.001.
Tumor growth was monitored every two days with caliper and tumor volume calculated using the formula Tvol=½(length×width^2). […]
TRAcP 5b was quantified in mouse serum using the MouseTRAP (TRAcP 5b) ELISA kit (IDS), according to the manufacturer instructions.

CC(=O)c1c(C)c2cnc(Nc3ccc(N4CCNCC4)cn3)nc2n(C2CCCC2)c1=O [palbociclib]
tumor growth (tumor volume): slowing of tumor growth
